Consider 14 molecules from patent publication US20200064333A1, “ECM COMPOSITION, TUMOR MICROENVIRONMENT PLATFORM AND METHODS THEREOF” (MITRA RXDX INDIA PRIVATE LIMITED, priority 2011, published 2020).

Test [1] relates to Breast Cancer patient tumor tissue. The test can be described thus: "Clinical Response Predictor" explant analysis (M-score), Breast cancer. Format: cell-based, human. Set-up: key: 0-100 composite M-score from proprietary algorithm. From the text:
“Clinical Response Predictor” is a patient segregation tool for matching drugs to patients and patients to the drugs in Oncology. “Clinical Response Predictor” explant model is a personalized functional assay that helps predict the response of the patient under investigation to a set of approved drugs for his/her type of cancer. This is done using fresh patient tumor tissue from solid cancers in a specially coated 96/384 well plate. The plates are coated with specific set of Extra Cellular Matix. Further, patient derived autologous ligands are added to the culture. Angiogenic factors are added to maintain tumor vasculature. In case of immunomodulator drugs, autologus immune cells are added to the culture. In the case of haematological malignancies, patient plasma is cultured in the 96/384 well format. The test is carried out in multiplicates to take into account the heterogeneous nature of cancer. “Clinical Response Predictor” results are measured by both kinetic as well as end-point assays. Cell Viability, Cell death, Cell proliferation, cell metabolism, senescence, tumor morphology are some of the parameters assessed. Each of these parameters is measured by more than one assay. For e.g.: Cell Viability is measured by WST, ATP uptake and Glucose uptake assays. Cell Proliferation and Metabolism is measured by Ki67, PCNA (proliferating nuclear cell antigen), ATP/ADP ratio and Glucose uptake. Cell death is assessed by LDH, Activated Caspase 3, Activated Caspase 8 & Nitric Oxide Synthase and TUNEL. Tumor morphology is assessed by H&E to look at the tumor cell content, size of the tumor cells, ratio of viable cells/dead cells, ratio of tumor cells/normal cells, and tumor/macrophage ratio, nuclear size and density and integrity, apoptotic bodies and mitotic figures. Results from each of the assays are expressed in numeric form and is converted using a proprietary algorithm into a single 0-100 metric called “M-score”.
Alternatively, when the tumor source is a xenograft, tumor from mice is excised and further subjected to explant analysis as described below. In another embodiment, the tumor is obtained and is implanted into the mice, thereafter it is allowed to grow, then excised and then subjected to the instant “Clinical Response Predictor” analysis. Post obtaining the, tissue sample, it is divided for obtaining various inputs from a) explant assay, b) Histology based assays like IHC (immunohistochemistry)/H&E, and c) efficacy analysis from primary tumor derived xenografts. • A) Tissue sample given for explant analysis is sliced using Leica Vibratome to generate sections of about 100-3000 μm thickness. These sections are cultured in plates coated with the cancer type specific ECM composition in quadruplicate with media containing autologous sera and also various drugs optionally, for a period of about 48-96 hours. Media with drug and enriched with serum/plasma/PBMCs/serum derived ligands is changed every 24 hours. Post this period MTT/WST analysis is done to assess percent cell viability (end point assay). The supernatant from the media culture is removed every 24 hrs and assessed for proliferation (using ATP and glucose utilization experiments) and cell death (by assessment of lactate dehydrogenase assays and caspase-3 and caspase 8 measurements) to give kinetic response trends. Results are quantified against a drug untreated control. […] The tissue sections both treated and untreated are also given for histological evaluation at the end of the culture period. • B) The tissues given for histological evaluation are assessed for apoptosis by TUNEL and activated caspase 3 assay. Also cell proliferation is assayed for standard proliferation markers like Ki67.

Test [2] deals with Stomach Cancer patient tumor tissue. The test can be described thus: "Clinical Response Predictor" explant analysis (M-score), Stomach cancer. Format: cell-based, human. The source says: (§1) “Clinical Response Predictor” is a patient segregation tool for matching drugs to patients and patients to the drugs in Oncology. “Clinical Response Predictor” explant model is a personalized functional assay that helps predict the response of the patient under investigation to a set of approved drugs for his/her type of cancer. This is done using fresh patient tumor tissue from solid cancers in a specially coated 96/384 well plate. The plates are coated with specific set of Extra Cellular Matix. Further, patient derived autologous ligands are added to the culture. Angiogenic factors are added to maintain tumor vasculature. In case of immunomodulator drugs, autologus immune cells are added to the culture. […] “Clinical Response Predictor” results are measured by both kinetic as well as end-point assays. Cell Viability, Cell death, Cell proliferation, cell metabolism, senescence, tumor morphology are some of the parameters assessed. Each of these parameters is measured by more than one assay. For e.g.: Cell Viability is measured by WST, ATP uptake and Glucose uptake assays. Cell Proliferation and Metabolism is measured by Ki67, PCNA (proliferating nuclear cell antigen), ATP/ADP ratio and Glucose uptake. Cell death is assessed by LDH, Activated Caspase 3, Activated Caspase 8 & Nitric Oxide Synthase and TUNEL. […]

The test system of test [3] is Glioblastoma, Ca-Ovary, Ca-Breast, Ca-Oesophagus, Ca-Pancreas, Ca-Stomach. Kind of test: Clinical outcome of patients (PETCT or CT), other solid cancers. The class given is in vivo, human. The conditions noted are these: evaluated at the end of 6-8 months by PETCT or CT.
Protocol: The figure details that the tumor tissue from the patient is analyzed using explant read out, primary Human tumor xenograft readout and then subjected to a variety of genomic and proteomic profiling accompanied by histological analysis and final correlation with patient clinical data for the chemotherapy regimen. All these input parameters together generate the “Clinical Response Predictor”. The integrated preclinical prediction model is designed based on functional “Clinical Response Predictor” screening platform and M Score prompted by it. Tumor tissues are collected from clinics prior to initiation of treatment. Clinical outcome (PERCIST/RECIST) data are collected before and after completion of 3 cycles of chemotherapy (top of the FIG. 1). Concomitantly, after resection/biopsy tumors are treated with same Standards of Care [SOC] or targeted drugs as that received by patients using an “Clinical Response Predictor” driven explants platform. This leads to the extensive functional and molecular characterization (middle of the FIG. 1). […] The combined data from this platform is integrated for determining the M-score and thereafter correlated with PERCIST/RECIST obtained from patient after 3rd to 6th cycle of therapy.
The “Clinical Response Predictor” outcome (M-score) is then compared with clinical outcome.
Test [4] deals with Ovary Cancer patient tumor tissue. The test can be described thus: "Clinical Response Predictor" explant analysis (M-score), Ovary cancer. Format: cell-based, human.
Text: as §1

Test [5] has as its system Glioblastoma patient tumor tissue. Kind of test: "Clinical Response Predictor" explant analysis (M-score), Glioblastoma. The class given is cell-based, human. The conditions noted are these: Glioblastoma patient tumor sample, Table 3.
Text: as §1

In test [6] the test system is Liver Cancer patient tumor tissue. The test can be described thus: "Clinical Response Predictor" explant analysis (M-score), Liver cancer. Format: cell-based, human. Particulars: for M-Score: liver. The source says: “Clinical Response Predictor” is a patient segregation tool for matching drugs to patients and patients to the drugs in Oncology. “Clinical Response Predictor” explant model is a personalized functional assay that helps predict the response of the patient under investigation to a set of approved drugs for his/her type of cancer. This is done using fresh patient tumor tissue from solid cancers in a specially coated 96/384 well plate. The plates are coated with specific set of Extra Cellular Matix. Further, patient derived autologous ligands are added to the culture. Angiogenic factors are added to maintain tumor vasculature. In case of immunomodulator drugs, autologus immune cells are added to the culture. In the case of haematological malignancies, patient plasma is cultured in the 96/384 well format. The test is carried out in multiplicates to take into account the heterogeneous nature of cancer. “Clinical Response Predictor” results are measured by both kinetic as well as end-point assays. Cell Viability, Cell death, Cell proliferation, cell metabolism, senescence, tumor morphology are some of the parameters assessed. Each of these parameters is measured by more than one assay. For e.g.: Cell Viability is measured by WST, ATP uptake and Glucose uptake assays. Cell Proliferation and Metabolism is measured by Ki67, PCNA (proliferating nuclear cell antigen), ATP/ADP ratio and Glucose uptake. Cell death is assessed by LDH, Activated Caspase 3, Activated Caspase 8 & Nitric Oxide Synthase and TUNEL. Tumor morphology is assessed by H&E to look at the tumor cell content, size of the tumor cells, ratio of viable cells/dead cells, ratio of tumor cells/normal cells, and tumor/macrophage ratio, nuclear size and density and integrity, apoptotic bodies and mitotic figures. Results from each of the assays are expressed in numeric form and is converted using a proprietary algorithm into a single 0-100 metric called “M-score”. […]
Alternatively, when the tumor source is a xenograft, tumor from mice is excised and further subjected to explant analysis as described below. […] The supernatant from the media culture is removed every 24 hrs and assessed for proliferation (using ATP and glucose utilization experiments) and cell death (by assessment of lactate dehydrogenase assays and caspase-3 and caspase 8 measurements) to give kinetic response trends. Results are quantified against a drug untreated control. […] The tissue sections both treated and untreated are also given for histological evaluation at the end of the culture period. • B) The tissues given for histological evaluation are assessed for apoptosis by TUNEL and activated caspase 3 assay. […]

For test [7], the system named is Pancreatic Cancer patient tumor tissue. The test can be described thus: "Clinical Response Predictor" explant analysis (M-score), Pancreatic cancer. Format: cell-based, human.
Text: as §1

Test [8] relates to Colon Cancer patient tumor tissue. Kind of test: "Clinical Response Predictor" explant analysis (M-score), Colon / Colorectum cancer. The class given is cell-based, human. From the text: “Clinical Response Predictor” is a patient segregation tool for matching drugs to patients and patients to the drugs in Oncology. “Clinical Response Predictor” explant model is a personalized functional assay that helps predict the response of the patient under investigation to a set of approved drugs for his/her type of cancer. This is done using fresh patient tumor tissue from solid cancers in a specially coated 96/384 well plate. The plates are coated with specific set of Extra Cellular Matix. Further, patient derived autologous ligands are added to the culture. Angiogenic factors are added to maintain tumor vasculature. In case of immunomodulator drugs, autologus immune cells are added to the culture. In the case of haematological malignancies, patient plasma is cultured in the 96/384 well format. The test is carried out in multiplicates to take into account the heterogeneous nature of cancer. “Clinical Response Predictor” results are measured by both kinetic as well as end-point assays. Cell Viability, Cell death, Cell proliferation, cell metabolism, senescence, tumor morphology are some of the parameters assessed. Each of these parameters is measured by more than one assay. For e.g.: Cell Viability is measured by WST, ATP uptake and Glucose uptake assays. Cell Proliferation and Metabolism is measured by Ki67, PCNA (proliferating nuclear cell antigen), ATP/ADP ratio and Glucose uptake. Cell death is assessed by LDH, Activated Caspase 3, Activated Caspase 8 & Nitric Oxide Synthase and TUNEL. Tumor morphology is assessed by H&E to look at the tumor cell content, size of the tumor cells, ratio of viable cells/dead cells, ratio of tumor cells/normal cells, and tumor/macrophage ratio, nuclear size and density and integrity, apoptotic bodies and mitotic figures. […]
Alternatively, when the tumor source is a xenograft, tumor from mice is excised and further subjected to explant analysis as described below. […] Results are quantified against a drug untreated control. […]

The test system of test [9] is Head and Neck Cancer patient tumor tissue. Kind of test: "Clinical Response Predictor" explant analysis (M-score / Sensitivity Index), Head and Neck cancer. Format: cell-based, human. Particulars: Right pyriform sinus.
Text: as §1

[10] abbreviates: Example 13.11: patient, Breast Cancer, Regional Lymph node (R) Breast, T3N1M0, metastasis and recc.
Where [11] appears, read: Example 13.14: patient, T4N0M0, primary.

Regarding `CCCCCOC(=O)Nc1nc(=O)n([C@@H]2O[C@H](C)[C@@H](O)[C@H]2O)cc1F` [Capecitabine], the M-Score in [1] (setting [10]) is 26.

Consider `COc1cccc2c1C(=O)c1c(O)c3c(c(O)c1C2=O)C[C@@](O)(C(=O)CO)C[C@@H]3O[C@H]1C[C@H](N)[C@H](O)[C@H](C)O1` [Doxorubicin], for which, in test [1] (setting [10]), the M-Score is 17.

Regarding `CCN(CC)CCNC(=O)c1c(C)[nH]c(/C=C2\C(=O)Nc3ccc(F)cc32)c1C` [Sunitinib], the M-Score is 25 in test [2] (Example 13.5: patient, pylorus of stomach, metastatic lymph node recc) and 09 in test [2] (Example 13.6: patient, stomach, recc).

Consider `CCC1=C[C@@H]2CN(C1)Cc1c([nH]c3ccccc13)[C@@](C(=O)OC)(c1cc3c(cc1OC)N(C)[C@H]1[C@@](O)(C(=O)OC)[C@H](OC(C)=O)[C@]4(CC)C=CCN5CC[C@]31[C@@H]54)C2` [Vinorelbine], for which, in test [1] (setting [10]), the M-Score is reported as 19. The “Clinical readout RECIST” value in [3] (Ca-Breast patients) was 2.

As for `CC(=O)O[C@H]1C(=O)[C@@]2(C)[C@H]([C@H](OC(=O)c3ccccc3)[C@]3(O)C[C@H](OC(=O)[C@H](O)[C@@H](NC(=O)c4ccccc4)c4ccccc4)C(C)=C1C3(C)C)[C@]1(OC(C)=O)CO[C@@H]1C[C@@H]2O` [Paclitaxel], the M-Score in [1] (setting [10]) is 11.

As to `CC(=O)O[C@@]12CO[C@@H]1C[C@H](O)[C@@]1(C)C(=O)[C@H](O)C3=C(C)[C@@H](OC(=O)[C@H](O)[C@@H](NC(=O)OC(C)(C)C)c4ccccc4)C[C@@](O)([C@@H](OC(=O)c4ccccc4)[C@H]21)C3(C)C` [Docetaxel], the M-Score in [4] (Example 13.10: patient, primary) is given as 19; in test [4] (Example 13.9: patient, metastasis), 26; in test [1] (setting [10]), 26.

Turning to `Cn1nnc2c(C(N)=O)ncn2c1=O` [Temozolomide], the “Sensitivity Index” value in test [5] was 49. For the same molecule, in test [3] (Glioblastoma patient), the “Clinical readout RECIST” value worked out at 2.

With `CNC(=O)c1cc(Oc2ccc(NC(=O)Nc3ccc(Cl)c(C(F)(F)F)c3)cc2)ccn1` [Sorafenib], the “"Clinical Response Predictor" analysis suggestion” value in test [6] (Example 13.13: patient, T3NxM1, metastasis) is listed as “not an optimal therapeutic option”; in test [6] (setting [11]), “an optimal therapeutic option”. The M-Score is recorded as 16 in test [6] (Example 13.13: patient, T3N×M1, metastasis) and 46 in test [6] (setting [11]).

Regarding `C#Cc1cccc(Nc2ncnc3cc(OCCOC)c(OCCOC)cc23)c1` [Erlotinib], the M-Score in test [7] (Example 13.7: patient, tumor site liver, metastasis) is given as 21; in test [7] (Example 13.8: patient, pancreas, T2N0M0, primary), 14.

For the molecule Avastin, the M-Score in [8] (Example 13.15: patient, Colorectum Cancer, perineal mass, T3N0M0, recurrent) is reported as 20; in test [1] (Example 13.18: patient, Breast Cancer with mets, Regional lymph node (Rt Br), T3N1M1, recurrent), 18; in test [1] (Example 13.19: patient, Breast Cancer with SCLN mets, supraclaviculus lymph node, TXNXM2, metastatic) it was 14.

As for `CC(C)(C#N)c1cc(Cn2cncn2)cc(C(C)(C)C#N)c1` [Anastrozole], in test [1] (setting [10]), the M-Score is reported as 20.

As for Panitumumab, the M-Score is given as 19 in [8] (Example 13.3: patient, Colon Cancer, rectosigmoid colon, Stage IV, metastasis) and 27 in test [8] (Example 13.4: patient, Colon Cancer, perineal mass (Ca-Rectum), T3N0M0, Recc).

As to `N.N.[Cl][Pt][Cl]` [Cisplatin], the M-Score is 64 in test [9] (Example 13.1: patient, T3N0M0, primary) and 39 in [9] (Example 13.2: patient, T3/4N2cM0, metastatic lymph node).

`Nc1ccn([C@@H]2O[C@H](CO)[C@@H](O)C2(F)F)c(=O)n1` [Gemcitabine]: the M-Score in test [1] (setting [10]) is 21.
